The results in this text go back to US20220195275A1, “Biocompatible Oil Herders and Methods of Use” (Texas A&M University, priority 2019, published 2022).

Data set [1] in a line: Conductivity versus temperature / determination of Krafft point. Type of data set: physicochemical. The settings on record: for Conductivity: SDS (0.1 mol/L) in water. On the procedure: The hand-held conductivity/TDS meter CN 6/TDS 6 of Oakton instruments was used to measure the conductivity and the temperature of the sample.
Sodium dodecyl sulfate (Ionic surfactant): sodium dodecyl sulfate in deionized water solution (0.1 mol/l) was prepared in a 200 ml glass beaker. The solution was stored in refrigerator at 5° C. for 24 hours. The sodium dodecyl sulfate surfactant has crystallized below the 5° C. atmosphere. The glass beaker was taken out of the refrigerator and placed on a hot plate stirrer. The conductivity meter probe was immersed into the solution. The dual measuring mode of conductivity meter could measure both the conductivity and the temperature. The solution was slightly heated to remain 0.2° C./min increase. The measured conductivity and temperature data were drawn in FIGS. 2A-2B. […]
Krafft temperature and solubility behavior of the ionic surfactant SDS and the non-ionic surfactant modified konjac glucomannan were discussed in FIGS. 2A-2D. […] The conductivity measurement was proven to be able to identify the Krafft temperature. Krafft temperature is the minimum temperature for surfactant to form micelles. There is an abrupt large solubility increase above the Krafft temperature. Surfactant working temperature should be higher than Krafft temperature for surfactant functioning.
First, 200 ml of SDS in deionized water solution of 0.1 mol/L concentration was prepared in a 200 ml glass beaker. The solution was left in refrigerator at 5° C. for 24 hours. This process has brought about the crystallization of the surfactant. The glass beaker is taken out of the refrigerator and placed on a hot plate stirrer (CORNING PC-420). The probe stick of the conductivity meter (TDS meter CON 6/TDS 6) is inserted into the solution. The dual measuring mode of conductivity meter can measure both the conductivity and the temperature. The conductivity of the solution is recorded from 12° C. and measured till 28° C. The solution is slightly heated to attain a steady temperature rise. The conductivity is measured at regular intervals of temperature (0.2° C. raise) and noted down. The whole process took about 2.5 hours. […]

A short description of data set [2]: Herding efficiency of PEG derivatives and commercial surfactants (slick thickness ratio vs herder concentration). The settings on record: 25° C. On the procedure: Herding surfactant is essentially a surface-active agent. To preliminarily investigate the material herding efficiency to oil, suitable polymer surfactants with […] were tested. Polyethylene glycol (PEG) is a water soluble polymer and easy to couple with hydrophobic chain to form surfactant. The experiments were performed at room temperature. The slick thickness ratio is defined as below: […]
Higher slick thickness ratio implied better herding quality. […] The effectiveness of surfactants at herding oil is directly related to the chemical structure of the PEG derivatives. […] The reason of slick thickness ratio curve of FIG. 8C and FIG. 8D remained flat were assumed to be its internal chemical structure large benzene rings and two side longer carbon chains. The benzene rings and longer carbon chains affected the steric hindrance of materials and largely restricted the hydrophobic side reaction with oil slick. They could not perform herding effect and thus curves in FIG. 8C and FIG. 8D remained flat, and the thickness ratio was close to 1.
More comparisons were tested to study herder efficiency with different commercial surfactants at varying temperatures and salinity. […] In FIG. 9B, the PEG-monolaurate retained high herding ability under 25° C. […]

Data set [3] has as its system black beans, red beans, and pinto beans. Conditions: in vivo.
Text: Edible black beans, red beans, and pinto beans were purchased from local supermarket. 12 black beans, 12 red beans, and 9 pinto beans were randomly chosen and set aside in lab atmosphere for 7 days. […] Beans were separated into three plastic petri dishes, into which four black beans, four red beans and three pinto beans each were placed. Three water environments were simulated, and beans were immersed with reference sea water, 0.25 wt % pristine KGM in sea water, and 0.25 wt % modified konjac glucomannan in sea water for 7 days.

For `CCCCCCCCCCCCOS(=O)(=O)[O-].[Na+]` [SDS, sodium dodecyl sulfate], the “Krafft temperature (sudden large increase in conductivity)” value in data set [1] (0.1 mol/L in deionized water) amounted to 14.6 °C. Besides, the Conductivity in data set [1] (13 ° C.) turned out to be 3.07 mS; in data set [1] (13.2 ° C.), 3.07 mS; in data set [1] (13.4 ° C.), 3.09 mS; in data set [1] (13.6 ° C.), 3.1 mS; in data set [1] (13.8 ° C.), 3.11 mS; in data set [1] (14 ° C.), 3.11 mS. Moreover, the Conductivity is reported as 3.12 mS in data set [1] (14.2 ° C.); 3.14 mS in data set [1] (14.4 ° C.); 3.25 mS in data set [1] (14.6 ° C.); 3.34 mS in data set [1] (14.8 ° C.); 3.56 mS in data set [1] (15 ° C.); 3.82 mS in data set [1] (15.2 ° C.). The Conductivity in data set [1] (15.4 ° C.) was found to be 4.02 mS; in data set [1] (15.6 ° C.), 4.21 mS; in data set [1] (15.8 ° C.) it was 4.3 mS; in data set [1] (16 ° C.) it was 4.35 mS; in data set [1] (16.2 ° C.), 4.37 mS; in data set [1] (16.4 ° C.), 4.38 mS. The Conductivity was determined as 4.34 mS in data set [1] (16.6 ° C.); 4.39 mS in data set [1] (16.8 ° C.); 4.39 mS in data set [1] (17 ° C.); 4.41 mS in data set [1] (17.2 ° C.); 4.43 mS in data set [1] (17.4 ° C.); 4.44 mS in data set [1] (17.6 ° C.). Moreover, the Conductivity in data set [1] (17.8 ° C.) turned out to be 4.45 mS; in data set [1] (18 ° C.), 4.49 mS; in data set [1] (18.6 ° C.) it was 4.5 mS; in data set [1] (19 ° C.), 4.51 mS; in data set [1] (19.4 ° C.), 4.53 mS; in data set [1] (20 ° C.) it was 4.57 mS. Also, the Conductivity was 4.6 mS in data set [1] (21 ° C.); 4.65 mS in data set [1] (22 ° C.); 4.67 mS in data set [1] (23 ° C.); 4.7 mS in data set [1] (24 ° C.); 4.72 mS in data set [1] (25 ° C.); 4.75 mS in data set [1] (26 ° C.). Also, the Conductivity in data set [1] (27 ° C.) worked out at 4.77 mS; in data set [1] (28 ° C.), 4.82 mS.
Turning to Span-20, the herding ability entry in data set [2] was “good herding ability”.
As to konjac glucomannan, the “growth (sprouting) of beans” value in data set [3] is recorded as “did not affect the growth of the beans”.
